Patent publication US10344330B2, “Glatiramer acetate response biomarker mRNA potency assay” (Mylan Inc., priority 2013, dated 2019)
Several values for one entry are separate records, joined by “and”; a condition that tells them apart may be missing. Identical values can stand only once.

B1: MBP: myelin basic protein, a negative control (protein, UniProt P02686 1-304, looked up)
Myelin basic protein: MGNHAGKRELNAEKASTNSETNRGESEKKRNLGELSRTTSEDNEVFGEADANQNNGTSSQDTAVTDSKRTADPKNAWQDAHPADPGSRPHLIRLFSRDAPGREDNTFKDRPSESDELQTIQEDSAATSESLDVMASQKRPSQRHGSKYLATASTMDHARHGFLPRHRDTGILDSIGRFFGGDRGAPKRGSGKDSHHPARTAHYGSLPQKSHGRTQDENPVVHFFKNIVTPRTPPPSQGKGRGLSLSRFSWGAEGQRPGFGYGGRASDYKSAHKGFKGVDAQGTLSKIFKLGGRDSRSGSPMARR

Columns and labels:
[1] = system: mIL-2 mRNA in primary LN cells; experiment: mIL-2 mRNA by real-time PCR in ex vivo stimulated LN cells of immunized (SJL/J×BALB/C)F1 mice (Example I); type: cell-based, mouse
Method: For each of the three experiments summarized in Table 1, female (SJL/J×BALB/C) F1 hybrid (Jackson Laboratory) mice were immunized by footpad injection with either 250 μg GMA (Mylan Pharmaceuticals, Inc.) and CFA (Sigma Aldrich), or Mannitol and CFA (as a negative control). The GA solution was diluted to 5 mg/mL with Dulbecco's Phosphate-buffered saline. A dose solution was then prepared by mixing the diluted GA solution (5 mg/mL) and CFA (1:1) until well-emulsified. Each mouse received a total injection volume of 0.1 mL (250 μg GA). Animals were immunized on Day 0. Immunized animals were sacrificed via cervical dislocation on Day 10 following immunization. Lymph nodes in the axillary and popliteal regions were removed aseptically in a purifier clean bench, and transferred into a sterile petri dish containing about 5 mL of sterile RPMI 1640 medium. The LN were washed 3 times with −5 mL of RPMI medium, and the LN cells isolated by pressing the LN with a syringe plunger. The cell suspension was transferred to a sterile 50 mL conical tube, washed in about 40 mL of RPMI medium by centrifuging at about 200×g for 10 minutes at about 4° C., and re-suspended in RPMI 1640 medium for cell counting. The cell suspension was centrifuged at about 200×g for 10 minutes at about 4° C. and re-suspended in ice cold enriched DCCM-1 medium. The LN cells (2.5×10^6 cells/cm^2) were plated in the wells of a 48-well tissue culture plate and stimulated with GA or controls.
After incubation at about 37° C. in a humidified CO2 incubator for the indicated time, total RNA was isolated from the treated cells using the RNeasy Mini Kit (Qiagen, Cat. #74104). Cells were lysed in RNA lysis buffer, transferred to Qiagen spin columns, washed, and the RNA eluted with DEPC-treated water from the column. cDNA was synthesized from each RNA sample using the High Capacity cDNA Reverse Transcription Kit (Applied Biosystems, Cat. #4368814). The PCR reactions were carried out using TaqMan Universal PCR Master Mix (Applied Biosystems, Cat. #4304437) and specific primers/probe for the target cytokine and reference internal controls. Primers/probes for mouse cytokines IL-2 (Cat. #4331182; ID Mm00434256_m1), IL-4 (Cat. #4331182; ID Mm00445259_m1), IL-5 (Cat. #4331182; ID Mm00439646_m1), IFN-γ (Cat. #4331182; ID Mm01168134_m1), IL-10 (ID Mm00439614_m1), and TNF-α (Mm00443260_g1) were obtained from Life Technologies. Expression of cytokine mRNA was quantitatively analyzed using a Real-Time PCR system (7500, Applied Biosystems).
(DCCM1 from Beit Haemek Ltd.; Cat. No. 05 010 1A). There was no MBP treatment for the 2-hour groups. (MBP from Bachem; Cat No. H-1964.0001) For each evaluation time DCCM1 was studied and compared, i.e. 2 hours represents 2 hours with DCCM1, 4 hours=4 hours, etc., and served as representative control for each timepoint.
For Experiment 3, a 96-well plate format was used, and RNA isolation was carried out using an SV 96 Total RNA Isolation System (Promega). Immunization of Groups 3A and 4A are described in Table 1. […] Y-axis: linear mRNA fold-changes of mIL-2. X-axis: log Cop and GA (Mylan GMA) concentration values. The best fit for the data set was performed using the logarithmic model.
Group 1B animals were female (SJL/J×BALB/C) F1 hybrid (Jackson Laboratory) mice immunized by footpad injection with either 250 μg GA and CFA, or Mannitol and CFA (as a negative control). A dose solution was prepared by mixing a diluted GA solution (5 mg/mL) and CFA (1:1).

[2] = system: IL-5 secreted by LN cells; experiment: IL-5 secretion by GA-stimulated LN cells, MSD 9-plex ELISA (Example II); type: cell-based, mouse; details: for IL-5 secretion response ratio (treated cell medium to control DCCM1 medium): 21 hr
Method: Animals at 8 weeks of age were immunized by injection into four footpads using a 1 mL syringe with a 27-G, 1⁄2-inch needle. […] Ten days post-immunization, immunized animals were sacrificed via cervical dislocation. […] The LN cells were isolated by pressing the LN with the plunger end of a sterile syringe. […] Trypan blue exclusion method was used to determine the cell density of viable cells in the suspension. […] Cat. […] LN cells were plated into a 24-well tissue culture plate for drug stimulation. […] Cell debris was removed by centrifugation at ca. 200×g for 10 minutes at 4° C. Cytokines secreted by treated cells were determined on the day of collection by ELISA using mouse TH 1/TH 2 9-Plex Tissue Culture Kit (Meso Scale Discovery; Cat No. […]-2, Lot #: K0032839) which detects Th1 cytokines (IFN-γ, IL-2, IL-12, IL-1β, TNF-α, CXCL1) and Th2 cytokines (IL-4, IL-5 and IL-10). For IFN-γ, culture media also were assayed at 45 hours using mouse IFN-γ Tissue Culture Kit (Meso Scale Discovery; Cat No. […] For the positive control, 0.5 mL of LN cells (5×10^6 cells/well) were treated with 0.5 mL of ConA (5 μg/mL). For the negative control, 0.5 mL of LN cells (5×10^6 cells/well) were treated with 0.5 mL of MBP (20 μg/mL). The LN cells with mock stimulation (enriched DCCM1 medium) were used to monitor the background level of a cytokine. For the cytokine assays, calibration standards or samples were incubated in the MULTI-SPOT or the SINGLE-SPOT plate and each cytokine bound to its corresponding capture antibody. All test samples were run in duplicate. The amount of each cytokine on its distinct spot was quantified using a cytokine-specific detection antibody labeled with MSD SULFO-TAGTM reagent. Electrochemiluminescent signals from immobilized SULFO-TAGTM-labeled complexes on each spot from each well were captured by the MSD SECTOR Imager 6000, which produces a signal directly proportional to the amount of captured cytokine in a test sample. The levels of cytokines in test samples were derived by interpolation from calibration curves with calibration standards of known concentrations using reagents provided with the MSD kits. Kits were used according to the manufacturer's protocols. […] Data are expressed as a response ratio of cytokine concentration in treated cell medium to control DCCM1 medium.

[3] = Experiment 1, GA-immunized (SJL/J×BALB/C)F1, 2 hour post stimulation, GA 10, ConA 2.5 μg/mL
[4] = Experiment 1, GA-immunized (SJL/J×BALB/C)F1, 4 hour post stimulation, GA 10, MBP 10, ConA 2.5 μg/mL
[5] = Experiment 1, GA-immunized (SJL/J×BALB/C)F1, 6 hour post stimulation, GA 10, MBP 10, ConA 2.5 μg/mL
[6] = Experiment 1, GA-immunized (SJL/J×BALB/C)F1, 24 hour post stimulation, GA 10, MBP 10, ConA 2.5 μg/mL
[7] = Experiment 3, Group 3A (GA + CFA), stimulation 2.5 μg/mL, 6 hours
[8] = Experiment 3, Group 4A controls, *Animals not immunized, MBP 10, ConA 2.5 μg/mL, 6 hours
[9] = Group 1B (GA + CFA), 4 hours post-stimulation, GA 10, MBP 10, ConA 2.5 μg/mL, reference 18S rRNA
[10] = Group 1B (GA + CFA), 6 hours post-stimulation, GA 10, MBP 10, ConA 2.5 μg/mL, reference 18S rRNA
[11] = Group 2B (Mannitol + CFA), 4 hours post-stimulation, GA 10, MBP 10, ConA 2.5 μg/mL, reference 18S rRNA
[12] = Group 2B (Mannitol + CFA), 6 hours post-stimulation, GA 10, MBP 10, ConA 2.5 μg/mL, reference 18S rRNA
[13] = BALB/cByJ, immunized GA Intraplantar
[14] = BALB/cByJ, immunized GA Lower Limb
[15] = BALB/cByJ, immunized Mannitol Intraplantar
[16] = C57BL10J, immunized GA Intraplantar
[17] = C57BL10J, immunized GA Lower Limb
[18] = C57BL10J, immunized Mannitol Intraplantar
[19] = CD-1, immunized GA Intraplantar
[20] = CD-1, immunized Mannitol Intraplantar
[21] = Experiment 3, Group 3A (GA + CFA), stimulation 10 μg/mL, 6 hours

Row | Molecule | mIL-2 mRNA Level [1, 3] [fold change vs control] | mIL-2 mRNA Level [1, 4] [fold change vs control] | mIL-2 mRNA Level [1, 5] [fold change vs control] | mIL-2 mRNA Level [1, 6] [fold change vs control] | mIL-2 mRNA Level [1, 7] [fold change vs control] | mIL-2 mRNA Level [1, 8] [fold change vs control] | mIL-2 mRNA Level [1, 9] [fold change vs control] | mIL-2 mRNA Level [1, 10] [fold change vs control] | mIL-2 mRNA Level [1, 11] [fold change vs control] | mIL-2 mRNA Level [1, 12] [fold change vs control] | IL-5 secretion response ratio (treated cell medium to control DCCM1 medium) [2, 13] | IL-5 secretion response ratio (treated cell medium to control DCCM1 medium) [2, 14] | IL-5 secretion response ratio (treated cell medium to control DCCM1 medium) [2, 15] | IL-5 secretion response ratio (treated cell medium to control DCCM1 medium) [2, 16] | IL-5 secretion response ratio (treated cell medium to control DCCM1 medium) [2, 17] | IL-5 secretion response ratio (treated cell medium to control DCCM1 medium) [2, 18] | IL-5 secretion response ratio (treated cell medium to control DCCM1 medium) [2, 19] | IL-5 secretion response ratio (treated cell medium to control DCCM1 medium) ([2]; CD-1, immunized GA Lower Limb) | IL-5 secretion response ratio (treated cell medium to control DCCM1 medium) [2, 20] | mIL-2 mRNA Level [1, 21] [fold change vs control] | further results
1 | Concanavalin A [ConA, reference compound] | 183.4 | 131.5 | 105.0 | 16.2 | 111.0 | 91.4 | 256.3 | 54.3 | 517.9 | 277.9 | 22.09 | 14.24 | 13.33 | 8.16 | 5.24 | 3.93 | 13.49 | 6.35 | 7.11 |  | 
2 | L-glutamic acid polymer with L-alanine, L-lysine and L-tyrosine, acetate (salt) [GA] | 5.3 | 12.2 | 20.8 | 3.6 | 20.2 |  | 16.7 | 10.2 | 1.8 | 1.4 |  |  |  |  |  |  |  |  |  | 26.1 | mIL-2 mRNA Level ([1]; Experiment 3, Group 3A (GA + CFA), stimulation 1 μg/mL, 6 hours): 9.7 fold change vs control; mIL-2 mRNA Level ([1]; Experiment 3, Group 3A (GA + CFA), stimulation 5 μg/mL, 6 hours): 22.6 fold change vs control; mIL-2 mRNA Level ([1]; Experiment 3, Group 3A (GA + CFA), stimulation 15 μg/mL, 6 hours): 27.3 fold change vs control; mIL-2 mRNA Level ([1]; Experiment 3, Group 3A (GA + CFA), stimulation 25 μg/mL, 6 hours): 34.7 fold change vs control; mIL-2 mRNA Level ([1]; Experiment 3, Group 4A (Mannitol + CFA), stimulation 5 μg/mL, 6 hours): 3.0 fold change vs control; mIL-2 mRNA Level ([1]; Experiment 3, Group 4A (Mannitol + CFA), stimulation 10 μg/mL, 6 hours): 1.6 fold change vs control; mIL-2 mRNA Level ([1]; Experiment 3, Group 4A (Mannitol + CFA), stimulation 25 μg/mL, 6 hours): 1.7 fold change vs control and 1.5 fold change vs control; mIL-2 mRNA level increase vs DCCM-1-stimulated control ([1]; Group 1B, 4 and 6 hours (text summary of Table 8)): at least 10 fold; IL-5 secretion, dose response to GA (in words) ([2]; BALB/cByJ cells and CD1 cells): dose-dependent manner
3 | B1 |  | 1.0 | 0.3 | 0.6 |  | 1.5 | 0.5 | 0.3 | 0.4 | 0.5 | 1.22 | 0.99 | 1.07 | 1.31 | 0.85 | 0.99 | 1.33 | 1.00 | 1.16 | 0.9 | 
